Results reported in patent US10870641B2, “Pyridazinones as PARP7 inhibitors” (Ribon Therapeutics Inc., priority 2018, dated 2020).

What was measured:
[1] = tested on: RAW264.7 mouse macrophages; assay: Induction of interferon-beta levels in RAW264.7 macrophages in the presence of STING agonist DMXAA (FIG. 3); type: cell-based
[2] = tested on: panel of cancer cell lines; assay: Inhibition of cancer cell growth, 72 hrs (CellTiter-Glo), GI50, Table A-2; type: cell-based
Method: (§1) Example C: Inhibition of Cancer Cell Growth by Treatment with PARP7 Inhibitors
(§2) Table A-2 and Table A-3 (below) represents the concentration that causes 50% growth inhibition (GI50) in a panel of cancer cell lines with Compound 18B and Compound 561. Cells were plated into 384-well plates at a pre-specified density in fetal bovine serum-containing media. Cells were treated with compound or vehicle (DMSO) 24 hrs later, and a day zero plate was collected for analysis. Test compound plates were incubated continuously for 72 hrs (Table A-2) or 144 hours (Table A-3) cell growth was assessed using a luminescent cell viability assay (CellTiter-Glo, Promega). The GI50 was determined by correcting for the cell count at time zero (time of treatment) and plotting data as percent growth relative to vehicle-treated cells.

[3] = tested on: NCI-H1373 lung cancer cells; assay: Inhibition of cancer cell growth in NCI-H1373 cells (FIG. 2); type: cell-based, human
[4] = target: TIPARP (PARP7) (Homo sapiens (Human), UniProt Q7Z3E1); assay: Enzymatic assay for inhibition of PARP7: displacement of biotinylated Probe A (TR-FRET); type: binding; settings: TR-FRET displacement of Probe A from TIPARP
Method: 20 nL of a dose response curve of each test compound was spotted in black 384-well polystyrene proxiplates (Perkin Elmer) using a Mosquito (TTP Labtech). […] Reactions were incubated at 25° C. for an additional 30 min, then read on an Envision plate reader equipped with a LANCE/DELFIA top mirror (Perkin Elmer) using excitation of 320 nm and emission of 615 nm and […] with a 90 μs delay. The ratio of the 665/615 nm emission were calculated for each well to determine the amount of complex of TIPARP and Probe A in each well. […] The Hill Coefficient is normally allowed to float but may also be fixed at 1 in a 3-parameter fit. Y is the % inhibition and X is the compound concentration.

[5] = tested on: CT26 cells; assay: Proliferation of CT26 cells in the presence of PARP7 inhibitors (CellTiter-Glo); type: cell-based, mouse; settings: 4 days incubation
Method: Example F: Proliferation of CT26 Cells in the Presence of PARP7 Inhibitors
CT26 cells were plated in a 384-well plate and allowed to adhere for several hours before being treated with Compound 18B. Cells were incubated with compound for 4 days prior to processing with CellTiter-Glo reagent (Promega). Luminescence was measured with a Perkin Elmer Envision and percent inhibition was calculated using the vehicle (DMSO) average as 0% inhibition. Non-linear regression analysis was performed using a 4 parameter (variable slope) fit in GraphPad Prism.

[6] = tested on: CT26 mouse colon cancer cells; assay: Induction of interferon-beta levels in CT26 cells in the presence of STING agonist DMXAA (FIG. 3); type: cell-based
[7] = tested on: panel of cancer cell lines; assay: Inhibition of cancer cell growth, 144 hours (CellTiter-Glo), GI50, Table A-3; type: cell-based; settings: MDA-MIB-468 cell line, breast adenocarcinoma
Method: as §1, §2

[8] = tested on: CT26 cells; assay: Inhibition of tumor growth by oral dosing, murine CT26 colon cancer syngeneic model; type: in vivo; settings: BALB/c mice, 125-500 mg/kg BID or 500 mg/kg QD, 21 days
Text: (§3) Example H: Inhibition of Tumor Growth by Oral Dosing with a PARP7 Inhibitor
(§4) The effect of Compound 561 on tumor growth was studied in a human NCI-H1373 lung cancer xenograft and a murine CT26 colon cancer syngeneic model.
For the CT26 study, BALB/c mice were inoculated subcutaneously in the right flank with CT26 cells for tumor development. After 5 days of cell inoculation, mice with 36-79 mm^3 tumors were randomized into treatment groups with mean tumor volumes of 54 mm^3. The treatments were started from the next day post randomization (defined randomization day as day 0) and were treated with vehicle (25 or 50% Labrasol) or Compound 561 BID (2 times a day every 12 hours) at doses ranging from 125-500 mg/kg or QD (once a day) at 500 mg/kg for 21 days by oral gavage or needle subcutaneously. Tumor volumes were determined by manual calipers every 2-3 days. Mean tumor volume and SEM are plotted. BID: twice a day; PO: per oral administration; QD: once a day; SC: per subcutaneous administration. The first two doses for vehicle and Compound 561 500 mg/kg in the QD groups were delivered by subcutaneous injection. […] Statistical significance is calculated using two-way ANOVA followed by Bonferroni post-tests in which the treatment groups were compared to vehicle control (****P<0.0001).

[9] = tested on: NCI-H1373 cells; assay: Inhibition of tumor growth by oral dosing, human NCI-H1373 lung cancer xenograft; type: in vivo, SCID mice
Text: as §3, §4
For the NCI-H1373 study, SCID mice were inoculated subcutaneously in the right flank with NCI-H1373 cells for tumor development. After 5 days of tumor growth, mice with 89-148 mm^3 tumors were randomized into treatment groups with mean tumor volumes of 121 mm^3. The treatments were started from the next day post randomization (defined randomization day as day 0) and were treated with vehicle (50% Labrasol) or Compound 561 (62.5, 125, 250, and 500 mg/kg) once a day for 28 days by oral gavage. Tumor volumes were determined by manual calipers every 2-3 days. Mean tumor volume and SEM are plotted. QD: once a day; PO: per oral administration. Statistical significance is calculated using two-way ANOVA followed by Bonferroni post-tests in which the treatment groups were compared to vehicle control (****P<0.0001).

[10] = tested on: murine CT26 colon cancer syngeneic model; assay: Tumor growth in murine CT26 colon cancer syngeneic model (FIG. 6A-C, 7B); type: in vivo, mouse; settings: once or twice daily administration, FIG. 7B
[11] = tested on: human NCI-H1373 lung cancer xenograft; assay: Tumor growth in human NCI-H1373 lung cancer xenograft (FIG. 7A); type: in vivo; settings: once daily administration

Chain of TIPARP (PARP7) (Q7Z3E1 whole entry): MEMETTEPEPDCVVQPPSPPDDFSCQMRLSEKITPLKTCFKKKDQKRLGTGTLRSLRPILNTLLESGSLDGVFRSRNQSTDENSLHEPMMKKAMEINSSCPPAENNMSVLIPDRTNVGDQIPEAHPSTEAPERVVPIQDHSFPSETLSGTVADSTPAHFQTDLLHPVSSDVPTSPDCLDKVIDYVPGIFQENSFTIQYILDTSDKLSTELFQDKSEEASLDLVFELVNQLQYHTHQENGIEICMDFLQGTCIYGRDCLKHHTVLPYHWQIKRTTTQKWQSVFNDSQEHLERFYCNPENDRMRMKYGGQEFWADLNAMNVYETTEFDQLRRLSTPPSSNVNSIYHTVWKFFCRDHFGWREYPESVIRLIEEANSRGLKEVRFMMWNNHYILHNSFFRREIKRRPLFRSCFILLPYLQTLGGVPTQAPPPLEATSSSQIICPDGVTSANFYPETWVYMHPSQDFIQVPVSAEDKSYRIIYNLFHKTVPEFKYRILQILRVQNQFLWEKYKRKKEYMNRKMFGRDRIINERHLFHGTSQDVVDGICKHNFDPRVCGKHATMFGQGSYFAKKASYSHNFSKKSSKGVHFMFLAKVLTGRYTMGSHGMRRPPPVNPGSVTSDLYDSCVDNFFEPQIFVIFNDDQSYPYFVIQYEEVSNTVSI

N#Cc1ccc(N2CCN(C(=O)c3cccc(OC[C@@H]4c5ccccc5CN4c4cn[nH]c(=O)c4C(F)(F)F)c3)CC2)nc1 [Example 18B, 6-[4-[(3-[[(1S)-2-[6-Oxo-5-(trifluoromethyl)-1,6-dihydropyridazin-4-yl]-2,3-dihydro-1H-isoindol-1-yl]methoxy]phenyl)carbonyl]piperazin-1-yl]pyridine-3-carbonitrile]
interferon-beta (IFN-β) levels [1]: induction of interferon-beta (IFN-β) levels
GI50 ([2]; 72 h, GSS cell line, stomach adenocarcinoma): 0.1 to 1 µM
GI50 ([2]; LUDLU-1, 72 h, LUDLU-1 cell line, lung squamous cell carcinoma): 0.1 to 1 µM
growth of NCI-H1373 lung cancer cells [3]: dose-dependent decrease in growth
IC50 [4]: < 0.1 µM
proliferation in CT26 cells in vitro [5]: do not inhibit proliferation
interferon-beta (IFN-β) levels [6]: induction of interferon-beta (IFN-β) levels

C[C@@H](COCCC(=O)N1CCN(c2ncc(C(F)(F)F)cn2)CC1)Nc1cn[nH]c(=O)c1C(F)(F)F [Example 561, 5-[[(2S)-1-(3-oxo-3-[4-[5-(trifluoromethyl)pyrimidin-2-yl]piperazin-1-yl]propoxy)propan-2-yl]amino]-4-(trifluoromethyl)-2,3-dihydropyridazin-3-one]
GI50 [7]: ≥ 1 µM
tumor growth [8]: significantly reduces tumor growth
tumor regression ([9]; 62.5 to 500 mg/kg once a day for 28 days, all dose levels): complete tumor regression
tumor growth ([9]; SCID mice, once daily oral gavage, 28 days): significantly reduces tumor growth
tumor growth [10]: significantly reduces tumor growth
tumor growth [11]: significantly reduces tumor growth
